In data set [1] the test system is melanoma and colorectal TILs. Description: Post thaw analysis of cryopreserved squeeze processed TILs (effect of DMSO and HSA). It is filed as cell-based. Conditions: DMSO 0% to 5%.
Protocol: To evaluate whether freeze-thaw (including any effect from one or more of the cryopreservatives) has an effect on the squeeze processed TILs described herein, the following methods were used and the mRNA translation and phenotypic expression were assessed. Briefly, cryopreserved, squeezed melanoma and colorectal TILs were thawed and resuspended in CTS OpTmizer media. Post thaw cell recovery and viability were measured via NC-200. Cells were plated in tissue culture-treated plates and incubated for 4, 24 hours, and 8 days in a 37° C. incubator. The TILs were squeezed were assessed at each time point including t=0 (immediately post thaw) by flow cytometry for viability, surface levels of mbIL-2 and mbIL-12, and phenotypic markers such as CCR7, CD45RO, CD62L, CD127, KLRG-1, CD25, CD69, CD39, CD103, and CD25.
To assess the potential impact from DMSO, the following TILs were formulated in varying concentrations of DMSO (i.e., 0%, 1.25%, 2.5%, and 5%): (1) TILs squeeze processed with mRNA encoding membrane-bound LL-2 and mRNA encoding IL-12; and (2) non-squeeze processed TILs. Each of the formulated samples also contained 5% human serum albumin. Then, the TILs were cryopreserved and subsequently thawed as described above.
Data set [2] deals with post-REP TILs. In words: Engineered TIL resistance to intrinsic apoptosis induced by Venetoclax and S63548 (Apotracker, Bcl-2 FACS). It is filed as cell-based, human. The procedure: Fresh post-REP TILs were collected from a 6-well G-Rex plate, centrifuged at 400 rcf at room temperature, and then washed and resuspended to 3-10M/mL in AIM V and transferred to a T25 flask and cultured at 37° C. for 24 hr. The cells were then prepared for squeeze-processing. The cells were counted, filtered through a 40-um cell strainer, washed, and the concentration was adjusted to 60M/mL by adding XVivo-15.
As shown above in Table 13, Group A was used as a control (i.e., not contacted with any payload and not squeeze processed). Group 13 was squeeze processed without any payload at room temperature using a microfluidic constriction (70 μm depth, 4.5 un width, and 10 μm length) at 30 psi. Groups C-H were squeeze processed at room temperature with the payloads shown above, i.e., Group C: mbIL-7 mRNA; Group D: Bcl-2 mRNA; Group E: mbIL-7 mRNA+Bcl-2 mRNA; Group F: mbIL-2 mRNA; Group G: mbIL-2 mRNA+Bcl-2 mRNA; Group H: mbIL-2 mRNA+mbIL-7 mRNA+Bcl-2 mRNA. Groups C-H were squeeze processed using the same conditions as in Group B (i.e., microfluidic constriction: 70 μm depth, 4.5 μm width, and 10 μm length; at 30 psi). […]
At 24 hours, 200 ul of cells were aspirated and centrifuged at 400 ref for 4 minutes at room temperature. […] The cells were then analyzed using an Attune Flow cytometer.

Data set [3] relates to TILs. In words: Effect of cytokine (IL-2 or IL-15) during TIL expansion (colorectal tumor). It is filed as cell-based. Conditions: for Cell Count on Day 13 / Viability on Day 13: replicate wells. How it is done:
Briefly, freshly resected colorectal tumor was rinsed in 1× Hank's Balanced Salt Solution (HBSS) with 10 µg/mL gentamicin and dissected into 8-27 mm^3 fragments using a forceps and scalpel. […] The G-Rex6M plate was then placed in a 37° C., 5% CO2 incubator for 3 days.
On day 3, the G-Rex6M plate was removed from the incubator. […] The G-Rex6M plate was returned to the 37° C., 5% CO2 incubator. On day 7 and 10, the G-Rex6M plate was removed from the incubator. […] The G-Rex6M plate was returned to the 37° C., 5% CO2 incubator.
[…] The number and viability of the TILs was assessed using a NucleoCounter NC-200.

Data set [4] has as its system post-REP TILs. Description: Proliferative capacity of CD62L positive mbIL-2 and mbIL-12 engineered TILs. It is filed as cell-based, human. Conditions: baseline CD62L positive and baseline CD62L negative fractions; day 4. How it is done: Fresh TILs from two donors on day 14 of REP were prepared for squeeze-processing Donors were processed in parallel throughout the experiment. TILs were centrifuged at 400 rcf for 4 minutes at room temperature. The supernatant was aspirated, and the cell populations were separately resuspended in 1 mL FACs buffer Cells were incubated at 4 C for 20 minutes with fluorescent anti-human antibody targeting CD62L. After incubation 150 μL of FACs isolation buffer were added to each sample and the samples were spun at 400 rcf for 4 minutes. Cells were then isolated using magnetic beads that select based on fluorescence as a proxy for CD62L expression. Cell fractions were incubated for 20 minutes at 37 C with 1 μM final cytoplasmic dyes; CD62L positive cells were incubated with dye that excites/emits at 405/450 nm and CD62L negative cells were incubated with dye that excites/emits at […]. The cells were then pooled, counted, filtered through a 40-um cell strainer, washed, and the concentration was adjusted to 50-80M/mL by adding XVivo-15.
As shown above in Table 18, Groups A and E were used as controls (i.e., not contacted with any payload and not squeeze processed). […]
At days 1, 4, and 6, 200 ul of cells were aspirated and centrifuged at 400 rcf for 4 minutes at room temperature. […] The cells were then analyzed using an Attune Flow cytometer.

Data set [5] deals with post-REP TILs. Description: mbIL-7 and Bcl-2 engineered TILs resistance to rhIL-7 sink effect (viability). The format is cell-based, human. Conditions: day 5; 250 μg/mL mbIL-7 mRNA. The procedure: Three 50M cell vials were thawed and diluted with FACs buffer. […] Cells were transferred to a T75 flask and cultured at 37° C. To allow the cells to recover from thaw, cells were cultured for 72 hr.
Cells were prepared for squeeze-processing. Cells were collected, centrifuged at 400 rcf at room temperature, and then washed, resuspended to 3-10M/mL in AIM V media without rhIL-2 to remove rhIL-2-dependent support prior to squeeze processing, transferred to a T25 flask, and cultured at 37° C. for 24 hours. The cells were then counted, filtered through a 40-um cell strainer, washed, and the concentration was adjusted to 50M/mL by adding XVivo-15.
As shown above in Table 19, Group A was used as a control (i.e., not contacted with any payload and not squeeze processed). Group 13 was squeeze processed without any payload at room temperature using microfluidic constrictions (70 μm depth, 4.5 m width, and 10 μm length) at 30 psi. […]
At days 1 and 5, 200 ul of cells were aspirated and centrifuged at 400 rcf for 4 minutes at room temperature. […] The cells were then analyzed using an Attune Flow cytometer.

Several values for one entry are separate records, joined by “and”; a condition that tells them apart may be missing. Identical values can stand only once.

As to `C[S+](C)[O-]` [DMSO], in data set [1], the “translation of the delivered mRNAs post-thaw” value is reported as “did not have a negative impact on the translation of the delivered mRNAs”. In addition, the “viability over time after thaw” value in data set [1] (squeeze-processed and unprocessed TILs) is “less DMSO also led to lower viability over time after thaw”.
For the molecule `CC1(C)CCC(CN2CCN(c3ccc(C(=O)NS(=O)(=O)c4ccc(NCC5CCOCC5)c([N+](=O)[O-])c4)c(Oc4cnc5[nH]ccc5c4)c3)CC2)=C(c2ccc(Cl)cc2)C1` [Venetoclax], in data set [2] (10, 100 or 1000 nM each of Venetoclax and S63548, 24 hours), the “apoptosis as measured by Apotracker dye” value is reported as “induced apoptosis”. Moreover, in data set [2] (Venetoclax and S63548 together), the “concentration with strongest dynamic range of cell killing” value came to 10 nM.
Consider “IL-15: recombinant IL-15 added to culture media”, for which, in data set [3] (500 U/mL IL-15), the “Cell Count on Day 13” value is 1.92 × 10^7 and 8.32 × 10^6; the “Viability on Day 13” value is 96.5% and 93.3%. In addition, in data set [3] (3,000 U/mL IL-15), the “Cell Count on Day 13” value is 3.34 × 10^6 and 2.96 × 10^7; the “Viability on Day 13” value is 94.8% and 91.3%. The “TIL expansion in culture” value in data set [3] (colorectal tumor fragments) is reported as “promote TIL expansion”.

B1: rhIL-12: recombinant human IL-12 added to culture (protein, UniProt P29459 23-219; P29460 23-328, looked up)
Interleukin-12 subunit alpha: RNLPVATPDPGMFPCLHHSQNLLRAVSNMLQKARQTLEFYPCTSEEIDHEDITKDKTSTVEACLPLELTKNESCLNSRETSFITNGSCLASRKTSFMMALCLSSIYEDLKMYQVEFKTMNAKLLMDPKRQIFLDQNMLAVIDELMQALNFNSETVPQKSSLEEPDFYKTKIKLCILLHAFRIRAVTIDRVMSYLNAS
Interleukin-12 subunit beta: IWELKKDVYVVELDWYPDAPGEMVVLTCDTPEEDGITWTLDQSSEVLGSGKTLTIQVKEFGDAGQYTCHKGGEVLSHSLLLLHKKEDGIWSTDILKDQKEPKNKTFLRCEAKNYSGRFTCWWLTTISTDLTFSVKSSRGSSDPQGVTCGAATLSAERVRGDNKEYEYSVECQEDSACPAAEESLPIEVMVDAVHKLKYENYTSSFFIRDIIKPDPPKNLQLKPLKNSRQVEVSWEYPDTWSTPHSYFSLTFCVQVQGKSKREKKDRVFTDKTSATVICRKNASISVRAQDRYYSSSWSEWASVPCS
Take B1: in data set [4], the CD62L positive cells result is listed as “enriched”.

B2: rhIL-7: recombinant human (rh) IL-7 (protein, UniProt P13232 26-177, looked up)
Interleukin-7: DCDIEGKDGKQYESVLMVSIDQLLDSMKEIGSNCLNNEFNFFKRHICDANKEGMFLFRAARKLRQFLKMNSTGDFDLHLLKVSEGTTILLNCTGQVKGRKPAALGEAQPTKSLEENKSLKEQKKLNDLCFLKRLLQEIKTCWNKILMGTKEH
With B2, in data set [5], the “rhIL-7 support giving viability equal to mbIL-7-engineered TILs” value is recorded as 10 ng/mL.

For the origin of these results see US20250327027A1, “METHODS TO GENERATE ENHANCED TUMOR INFILTRATING LYMPHOCYTES THROUGH MICROFLUIDIC DELIVERY” (STEMCELL TECHNOLOGIES CANADA INC., priority 2021, published 2025).
